Measured values as given in patent US20060199856A1, “Novel compounds as anti-inflammatory, immunomodulatory and anti-proliferatory agents” (4 SC AG, priority 2001, published 2006).
Where two headings read alike, the source gives them in different places.

What was measured:
Assay type in all cases: biochemical
recombinant human DHODH = molecular target: T1, recombinant human DHODH (Homo sapiens, UniProt Q02127); assay: Inhibition assay of DHODH activity (human enzyme)
T1 construct: provided by Prof; M. Löffler, Marburg, Germany (gift, not purchased)
Description: (§1) The standard assay mixture contained 50 μM decyclo ubichinone, 100 μM dihydroorotate, 60 μM 2,6-dichloroindophenol, as well as 20 mU DHODH. The volume activity of the recombinant enzyme used was 30 U/ml. Measurements were conducted in 50 mM TrisHCl (150 mM KCl, 0,1% Triton X-100, pH. 8,0) at 30° C. in a final volume of 1 ml. The components were mixed, and the reaction was started by adding dihydroorotate. The course of reaction was followed by spectrophotometrically measuring the decrease in absorption at 600 nm for 2 min.
(§2) Inhibitory studies were conducted in a standard assay with additional variable amounts of inhibitor.
(§3) These investigations were carried out with recombinant human as well as with recombinant murine DHODH provided by Prof. M. Löffler, Marburg, Germany [M. Löffler, Chem. Biol. Interact.

recombinant murine DHODH = molecular target: T2, recombinant murine DHODH (Mus musculus, UniProt O35435); assay: Inhibition assay of DHODH activity (murine enzyme); conditions: numeric values or words
T2 construct: provided by Prof; M. Löffler, Marburg, Germany (gift, not purchased)
Description: as §1, §2, §3

DHODH = DHODH (Rattus norvegicus, UniProt Q63707); assay: Inhibition assay of DHODH activity (rat enzyme, head printed 'rate')
Description: as §1, §2

[1] = recombinant human DHODH, numeric values, read-out: human IC50-Value
[2] = class symbols (in nM), read-out: rate IC50-Value
[3] = recombinant human DHODH, class symbols (in nM), read-out: human IC50-Value

T1 sequence (Q02127 whole entry): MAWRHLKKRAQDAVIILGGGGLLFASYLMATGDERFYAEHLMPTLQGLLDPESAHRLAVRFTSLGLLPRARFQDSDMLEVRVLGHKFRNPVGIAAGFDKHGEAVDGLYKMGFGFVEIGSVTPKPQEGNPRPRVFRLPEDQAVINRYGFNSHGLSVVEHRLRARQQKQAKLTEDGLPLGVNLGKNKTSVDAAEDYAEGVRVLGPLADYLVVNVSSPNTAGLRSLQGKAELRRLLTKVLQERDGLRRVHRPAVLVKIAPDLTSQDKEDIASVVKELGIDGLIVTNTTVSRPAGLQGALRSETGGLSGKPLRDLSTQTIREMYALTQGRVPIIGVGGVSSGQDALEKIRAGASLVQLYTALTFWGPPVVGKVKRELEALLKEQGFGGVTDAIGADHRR
T2 sequence (O35435 whole entry): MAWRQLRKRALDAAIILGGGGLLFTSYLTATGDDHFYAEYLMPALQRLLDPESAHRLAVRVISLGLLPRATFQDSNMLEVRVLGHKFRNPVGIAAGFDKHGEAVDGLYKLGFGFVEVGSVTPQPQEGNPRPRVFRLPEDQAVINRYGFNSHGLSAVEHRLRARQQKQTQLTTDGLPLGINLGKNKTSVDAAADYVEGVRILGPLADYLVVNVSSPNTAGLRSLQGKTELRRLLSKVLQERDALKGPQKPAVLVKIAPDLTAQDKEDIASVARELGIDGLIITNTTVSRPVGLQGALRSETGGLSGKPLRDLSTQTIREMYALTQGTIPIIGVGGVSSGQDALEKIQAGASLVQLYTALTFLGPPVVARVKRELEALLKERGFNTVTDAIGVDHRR
DHODH, sequence (Q63707 whole entry): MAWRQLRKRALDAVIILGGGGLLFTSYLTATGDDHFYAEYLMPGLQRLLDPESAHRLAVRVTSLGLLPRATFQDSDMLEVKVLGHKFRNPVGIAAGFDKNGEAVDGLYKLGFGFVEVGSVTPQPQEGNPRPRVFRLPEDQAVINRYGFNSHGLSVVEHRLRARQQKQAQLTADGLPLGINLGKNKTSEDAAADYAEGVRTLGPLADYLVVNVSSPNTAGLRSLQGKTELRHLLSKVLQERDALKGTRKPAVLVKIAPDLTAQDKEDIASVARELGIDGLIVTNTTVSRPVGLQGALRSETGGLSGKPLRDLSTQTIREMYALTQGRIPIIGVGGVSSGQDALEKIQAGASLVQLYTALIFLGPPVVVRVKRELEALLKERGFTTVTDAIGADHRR

Row | Structure (SMILES) | IC50 (recombinant human DHODH; [3]) [nM] | further results
1 | O=C(O)C1=C(C(=O)Nc2ccc(OCc3ccccc3)cc2)CCC1 [Compound 01, 2-(4-Benzyloxy-phenylcarbamoyl)-cyclopent-l-enecarboxylic acid] | – | IC50 (recombinant human DHODH; [1]): 350 nM; IC50 (recombinant murine DHODH): 8200 nM
2 | O=C(O)C1=C(C(=O)Nc2cc(C(F)(F)F)cc(C(F)(F)F)c2)CCC1 [Compound 03] | – | IC50 (recombinant human DHODH; [1]): 1000 nM
3 | COc1ccc(Nc2ccc(NC(=O)C3=C(C(=O)O)CCC3)cc2)cc1 [Compound 04] | – | IC50 (recombinant human DHODH; [1]): 1000 nM; murine IC50-Value (recombinant murine DHODH): weakly active
4 | O=C(O)C1=C(C(=O)Nc2ccc3c(c2)S(=O)(=O)c2cc(NC(=O)C4=C(C(=O)O)CCC4)ccc2C3)CCC1 [Compound 05] | – | IC50 (recombinant human DHODH; [1]): 1100 nM; murine IC50-Value (recombinant murine DHODH): weakley active
5 | O=C(O)C1=C(C(=O)Nc2c(F)c(F)cc(F)c2F)CCC1 [Compound 06] | – | IC50 (recombinant human DHODH; [1]): 1300 nM
6 | O=C(O)C1=C(C(=O)Nc2c(F)c(F)c(C(F)(F)F)c(F)c2F)CCC1 [Compound 07] | – | IC50 (recombinant human DHODH; [1]): 1600 nM
7 | O=C(O)C1=C(C(=O)Nc2ccc(C(F)(F)F)cc2)CCC1 [Compound 08] | – | IC50 (recombinant human DHODH; [1]): 1600 nM; IC50 (recombinant murine DHODH): 930 nM
8 | O=C(O)C1=C(C(=O)Nc2cccc(C(F)(F)F)c2)CCC1 [Compound 09] | – | IC50 (recombinant human DHODH; [1]): 6800 nM; IC50 (recombinant murine DHODH): 55000 nM
9 | O=C(O)C1=C(C(=O)Nc2ccc(F)c(F)c2F)CCC1 [Compound 10] | – | IC50 (recombinant human DHODH; [1]): 6800 nM
10 | Nc1ccc(Oc2ccc(NC(=O)C3=C(C(=O)O)CCCC3)cc2)cc1 [Compound 11] | – | IC50 (recombinant human DHODH; [1]): 7000 nM
11 | O=C(O)C1=C(C(=O)Nc2ccc(-c3ccccc3F)cc2)CCC1 [Compound 13] | < 800 | IC50 (DHODH; [2]): > 1500 nM
12 | O=C(O)C1=C(C(=O)Nc2ccc(-c3ccccc3Cl)cc2)CCC1 [Compound 14] | < 800 | IC50 (DHODH; [2]): > 1500 nM
13 | COc1ccccc1-c1ccc(NC(=O)C2=C(C(=O)O)CCC2)cc1 [Compound 15] | < 800 | –
14 | O=C(O)C1=C(C(=O)Nc2ccc(OCc3c(F)cccc3F)cc2)CCC1 [Compound 16] | < 800 | –
15 | CCOc1ccccc1-c1ccc(NC(=O)C2=C(C(=O)O)CCC2)c(F)c1 [Compound 17] | < 800 | –
16 | N#Cc1cccc(-c2ccc(NC(=O)C3=C(C(=O)O)CCC3)cc2Cl)c1 [Compound 18] | < 800 | –
17 | COc1ccc(-c2ccc(NC(=O)C3=C(C(=O)O)CCC3)cc2Cl)cc1 [Compound 19] | < 800 | IC50 (DHODH; [2]): < 800 nM

Row | Structure (SMILES) | IC50 (recombinant human DHODH; [3]) [nM] | further results
18 | CS(=O)(=O)c1ccc(-c2ccc(NC(=O)C3=C(C(=O)O)CCC3)cc2Cl)cc1 [Compound 20] | 800 to 1500 | –
19 | N#Cc1ccc(-c2ccc(NC(=O)C3=C(C(=O)O)CCC3)cc2Cl)cc1 [Compound 21] | 800 to 1500 | –
20 | COc1ccc(-c2ccc(NC(=O)C3=C(C(=O)O)CCC3)cc2Cl)cn1 [Compound 22] | < 800 | –
21 | COc1ccc(-c2ccc(NC(=O)C3=C(C(=O)O)CCC3)cc2C)cc1 [Compound 23] | < 800 | –
22 | O=C(O)C1=C(C(=O)Nc2cc(Br)c(OCc3cc(F)ccc3F)c(Br)c2)CCC1 [Compound 24] | < 800 | IC50 (DHODH; [2]): > 1500 nM
23 | COc1cccc(-c2ccc(NC(=O)C3=C(C(=O)O)CCC3)c(F)c2)c1 [Compound 26] | – | IC50 (DHODH): > 1500 nM
24 | O=C(O)C1=C(C(=O)Nc2ccc(-c3cccc(F)c3)cc2F)CCC1 [Compound 27] | < 800 | –
25 | O=C(O)C1=C(C(=O)Nc2ccc(-c3cccnc3)c(Cl)c2)CCC1 [Compound 28] | 800 to 1500 | –
26 | O=C(O)C1=C(C(=O)Nc2cc(Br)c(OCc3ccccc3)c(Br)c2)CSC1 [Compound 29] | – | IC50 (DHODH): 800 to 1500 nM; IC50 (recombinant human DHODH): < 800 nM
27 | Cc1cc(-c2cc(F)c(NC(=O)C3=C(C(=O)O)CCC3)c(F)c2)ccc1F [Compound 30] | < 800 | –
28 | COc1ccccc1-c1ccc(NC(=O)C2=C(C(=O)O)CCC2)c([N+](=O)[O-])c1 [Compound 32] | < 800 | –
29 | COc1cc(-c2ccccc2)ccc1NC(=O)C1=C(C(=O)O)CCC1 [Compound 33] | < 800 | –
30 | COc1cc(-c2ccccc2Cl)ccc1NC(=O)C1=C(C(=O)O)CCC1 [Compound 34] | < 800 | –
31 | COc1cc(-c2cccc(OC(F)(F)F)c2)ccc1NC(=O)C1=C(C(=O)O)CCC1 [Compound 35] | < 800 | –
32 | COc1cc(-c2ccccc2F)ccc1NC(=O)C1=C(C(=O)O)CCC1 [Compound 36] | < 800 | –
33 | COc1ccc(-c2ccc(NC(=O)C3=C(C(=O)O)CCC3)c(OC)c2)c(OC)c1 [Compound 37] | < 800 | –
34 | CCOc1cccc(-c2ccc(NC(=O)C3=C(C(=O)O)CCC3)c(OC)c2)c1 [Compound 38] | < 800 | –
